Data as given in patent publication US20170029531A1, “INHIBITION OF LACTATE DEHYDROGENASE 5 (LDH-5) BINDING, INCORPORATION, INTERNALIZATION AND/OR ENDOCYTOSIS TO IMMUNE CELLS” (Seattle Children's Hospital (dba Seattle Children's …, priority 2014, published 2017).

Assays:
Format in all cases: cell-based
Tumor cells = assay: LDH-5 internalization by tumor cells, flow cytometry (FIGS. 16-19); settings: FIG. 16
Experimental: FIG. 17. Tumor cells internalize LDH-5, which can be reduced by antibody blocking. 10 ug/ml of LDH5 specific monoclonal antibody was added to cells 1 hour prior to culture with LDH5 as described above and evaluated for internalization using flow cytometry to evaluate fluorescence.
FIG. 19. LDH-5 internalization is receptor mediated and Clathrin dependent. LDH5 internalization is reduced with receptor mediated endocytosis inhibitors.
LDH5 internalization is reduced with receptor mediated endocytosis inhibitors. This supports that internalization is mediated by a specific receptor, as opposite to bulk phagocytosis.

U87 = U87 mitochondrial function and viability after overnight LDH5
Experimental: FIG. 30. U87 mitochondrial function. […] U87 were treated overnight with LDH5 then with controls 100 uM FCCP (depolarizer) or 200 ng/mL staurosporine (hyperpolarizer) for 10 min. Cells were then loaded with the mitochondrial membrane potential sensitive dye Mitotracker CMXRos for 15 min then fixed in 2% PF. Fluorescence intensity was measured by flow cytometry.
FIG. 31. U87 mitochondrial function. […] U87 were treated overnight with LDH5. Cells were fixed in 2% PF and immunostained with an anti-mitochondrial antibody and phalloidin (actin) Mitochondrial and cell surface area were calculated by Nuance software.
FIG. 32. U87 mitochondrial function. […] U87 were treated overnight with LDH5 then with 200 ng/mL staurosporine for 5 or 24 hours. Cells were then trypsinized, stained with Annexin 594 and analyzed by flow cytometry.
Experimental wells were pulsed with 50 ug/mL LDH-A488 for 24 hours as indicated (control wells received no LDH) at 37° C. Cells were treated for 2 min with 0.5M acetic acid+150 mM NaCl (pH 2.5), followed by 4 subsequent washes in RPMI+10% FBS. […] (See FIGS. 31-32).

[1] = tested on: glioblastoma cell line U87; assay: IL-6 gene expression in glioblastoma cell line U87
[2] = U87 treated overnight with LDH5

LDH5: purified native lactate dehydrogenase isoenzyme 5, alpha only tetramer; fluorescently labeled in uptake tests
Internalization of LDH-5 by tumor cells (Tumor cells): internalize
Viability / staurosporine induced apoptosis (Annexin) (U87; U87 overnight LDH5, then 200 ng/mL staurosporine for 5 or 24 hours): does not reduce viability, nor rescue from staurosporine induced apoptosis
Mitochondrial membrane potential (Mitotracker CMXRos) (U87; [2]): depolarizes mitochondrial membrane
Mitochondrial surface area (U87; [2]): does not change
IL-6 gene expression [1]: induces IL-6 gene expression
